Assay results: ChEMBL document CHEMBL3352603, “Synthesis and preliminary investigations into novel 1,2,3-triazole-derived androgen receptor antagonists inspired by bicalutamide” (Bioorg Med Chem Lett, 2014)
pIC50: −log10 of the molar value.

Key:
LNCaP = assay: Growth inhibition of human LNCAP cells; assay type: functional, cell-based
[1] = Growth inhibition of human PC3 cells; assay type: functional, cell-based; conditions: PC-3

| Structure (SMILES) | pIC50 (LNCaP) | pIC50 [1] |
| --- | --- | --- |
| CC(O)(CS(=O)(=O)c1ccc(F)cc1)c1cn(-c2ccc(C#N)c(C(F)(F)F)c2)nn1 (racemic) | 4.35 | < 3.52 |
| CC(O)(CS(=O)(=O)c1ccc(F)cc1)c1cn(-c2ccc([N+](=O)[O-])c(C(F)(F)F)c2)nn1 (racemic) | 4.44 | < 3.52 |
| CCOC(=O)c1ccc(-n2cc(C(C)(O)CS(=O)(=O)c3ccc(F)cc3)nn2)cc1 (racemic) | < 3.52 | < 3.52 |
| CC(O)(CS(=O)(=O)c1ccc(F)cc1)c1cn(-c2ccc(C(=O)O)cc2)nn1 (racemic) | < 3.52 | < 3.52 |
| CC(O)(CS(=O)(=O)c1ccccc1)c1cn(-c2ccc(C#N)c(C(F)(F)F)c2)nn1 (racemic) | 3.82 | 3.94 |
| CC(O)(CS(=O)(=O)c1ccccc1)c1cn(-c2ccc([N+](=O)[O-])c(C(F)(F)F)c2)nn1 (racemic) | 4.47 | 4.54 |
| CC(O)(CS(=O)(=O)c1ccc(F)cc1)C(=O)Nc1ccc(C#N)c(C(F)(F)F)c1 (centres undefined) [BICALUTAMIDE] | 4.52 | 4.24 |
